Measured values reported in patent US20240124442A1, “TRICYCLIC-AMIDO-BICYCLIC PRMT5 INHIBITORS” (AMGEN INC., priority 2021, published 2024).

Tests used:
[1] = test system: HCT116 MTAP null cells; test: HCT116 MTAP null cell line proliferation / cell viability (CellTiter-Glo, 6 days); assay type: cell-based; details: 144 h; HCT116 MTAP null cells, 6 days treatment, CellTiter-Glo cell viability; read-out: HCT-116 MTAP null IC50
Summary of the method: (§1)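 Viability read by CellTiter-Glo luminescence after 6 days of compound treatment of HCT116 WT and MTAP-null cells (RPMI 1640, 10% FBS). Dose series were 1:3 steps from 1 or 10 μM (8–9 points), or 1:2 steps from 10 or 50 μM (22 points). IC50 from 4-parameter logistic or fixed-slope sigmoidal fit.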

[2] = test system: HCT116 WT cells; test: HCT116 WT (parent) cell line proliferation / cell viability (CellTiter-Glo, 6 days); assay type: cell-based; details: Homo sapiens, HCT-116, 144 h, 6 days treatment
Summary of the method: as §1

Question: With `CN(C(=O)c1ccc2nc(N)c3cnn(C)c3c2c1)[C@@H]1COc2cc(Br)cnc21` [Example 235, 4-amino-N-((3S)-6-bromo-2,3-dihydrofuro[3,2-b]pyridin-3-yl)-N,1-dimethyl-1H-pyrazolo[4,3-c]quinoline-8-carboxamide] as the compound, how does the IC50 [1] read?
Answer: 219 nM

Question: What about the IC50 [2] of the same compound?
Answer: 10000 nM

Question: For `CN(C(=O)c1ccc2nc(N)c3cnn(C)c3c2c1)[C@H]1COc2cc(Br)cnc21` [Example 236, 4-amino-N-((3R)-6-bromo-2,3-dihydrofuro[3,2-b]pyridin-3-yl)-N,1-dimethyl-1H-pyrazolo[4,3-c]quinoline-8-carboxamide], which IC50 [1] is on record?
Answer: 786 nM

Question: And the IC50 [2]?
Answer: 24200 nM

Question: How did the IC50 [1] turn out when `CN(C(=O)c1cc2c(cn1)nc(N)c1cnn(C)c12)[C@@H]1COc2cc(C(F)(F)F)ccc21` [Example 237, 4-amino-N,1-dimethyl-N-((3S)-6-(trifluoromethyl)-2,3-dihydro-1-benzofuran-3-yl)-1H-pyr-azolo[4,3-c][1,7]naphthyridine-8-carboxamide] was run?
Answer: 12 nM

Question: And the IC50 [2]?
Answer: 192 nM

Question: Which results are given for `CN(C(=O)c1cc2c(cn1)nc(N)c1cnn(C)c12)[C@@H]1COc2cc(OC(F)(F)F)ccc21` [Example 239, 4-amino-N,1-dimethyl-N-((3S)-6-(trifluoromethoxy)-2,3-dihydro-1-benzofuran-3-yl)-1H-pyrazolo[4,3-c][1,7]-naphthyridine-8-carboxamide]?
Answer: IC50 [1]: 10 nM; IC50 [2]: 168 nM

Question: For `CN(C(=O)c1cc2c(cn1)nc(N)c1cnn(C)c12)[C@@H]1COc2cc(S(F)(F)(F)(F)F)ccc21` [Example 240, 4-amino-N,1-dimethyl-N-((3S)-6-(pentafluoro-lambda~6~-sulfanyl)-2,3-dihydro-1-benzofuran-3-yl)-1H-pyrazolo[4,3-c][1,7]naph-thyridine-8-carboxamide], which IC50 [1] is on record?
Answer: 13 nM

Question: And the IC50 [2]?
Answer: 250 nM

Question: Which IC50 [1] does the source give for `CN(C(=O)c1cc2c(cn1)nc(N)c1cnn(C)c12)[C@@H]1COc2cc(-c3cnn(C(F)(F)F)c3)ccc21` [Example 241, 4-amino-N,1-dimethyl-N-((3S)-6-(1-(trifluoromethyl)-1H-pyrazol-4-yl)-2,3-dihydro-1-benzofuran-3-yl)-1H-pyr-azolo[4,3-c][1,7]naphthyridine-8-carboxamide] here?
Answer: 9 nM

Question: What about the IC50 [2] of the same compound?
Answer: 388 nM

Question: `CCN(C(=O)c1cc2c(cc1F)nc(N)c1cnn(C)c12)[C@@H]1COc2cc(C(F)(F)F)ccc21` [Example 243, 4-amino-N-ethyl-7-fluoro-1-methyl-N-((3S)-6-(trifluoro-methyl)-2,3-dihydro-1-benzo-furan-3-yl)-1H-pyrazolo[4,3-c]-quinoline-8-carboxamide] was tested. Which IC50 [1] did it give?
Answer: 9 nM

Question: What about the IC50 [2] of the same compound?
Answer: 82 nM

Question: With `CCN(C(=O)c1cc2c(cc1F)nc(N)c1cnn(C)c12)[C@H]1COc2cc(C(F)(F)F)ccc21` [Example 244, 4-amino-N-ethyl-7-fluoro-1-methyl-N-((3R)-6-(trifluoro-methyl)-2,3-dihydro-1-benzo-furan-3-yl)-1H-pyrazolo[4,3-c]quinoline-8-carboxamide] as the compound, how does the IC50 [1] read?
Answer: 182 nM

Question: And the IC50 [2]?
Answer: 7440 nM

Question: `CN(C(=O)c1cc2c(cc1F)nc(N)c1cnn(C)c12)[C@@H]1COc2cc(-c3cnn(C(F)(F)F)c3)ccc21` [Example 247, 4-amino-7-fluoro-N,1-dimethyl-N-((3S)-6-(1-(trifluoromethyl)-1H-pyrazol-4-yl)-2,3-dihydro-1-benzofuran-3-yl)-1H-pyrazolo[4,3-c]quinoline-8-carboxamide] was tested. Which IC50 [1] did it give?
Answer: 5 nM

Question: And the IC50 [2]?
Answer: 304 nM

Question: For `CN(C(=O)c1cc2c(cc1Cl)nc(N)c1cnn(C)c12)[C@@H]1COc2cc(-c3cnn(C(F)(F)F)c3)ccc21` [Example 249, 4-amino-7-chloro-N,1-dimethyl-N-((3S)-6-(1-(trifluoromethyl)-1H-pyrazol-4-yl)-2,3-dihydro-1-benzo-furan-3-yl)-1H-pyrazolo[4,3-c]quinoline-8-carboxamide], which IC50 [1] is on record?
Answer: 3 nM

Question: What about the IC50 [2] of the same compound?
Answer: 66 nM

Question: Which results are given for `Cc1cc2nc(N)c3cnn(C)c3c2cc1C(=O)N(C)[C@@H]1COc2cc(C(F)(F)F)ccc21` [Example 250, 4-amino-N,1,7-trimethyl-N-((3S)-6-(trifluoromethyl)-2,3-dihydro-1-benzofuran-3-yl)-1H-pyrazolo[4,3-c]quinoline-8-carboxamide]?
Answer: IC50 [1]: 2 nM; IC50 [2]: 46 nM

Question: Which results are given for `Cc1nc2nc(N)c3cnn(C)c3c2cc1C(=O)N(C)[C@@H]1COc2cc(C(F)(F)F)ccc21` [Example 251, 4-amino-N,1,7-trimethyl-N-((3S)-6-(trifluoromethyl)-2,3-dihydro-1-benzofuran-3-yl)-1H-pyrazolo[4,3-c][1,8]-naphthyridine-8-carboxamide]?
Answer: IC50 [1]: 7 nM; IC50 [2]: 217 nM

Question: With `Cc1nc2nc(N)c3cnn(C)c3c2cc1C(=O)N(C)[C@@H]1COc2cc(Cl)c(Cl)cc21` [Example 252, 4-amino-N-((3S)-5,6-dichloro-2,3-dihydro-1-benzofuran-3-yl)-N,1,7-trimethyl-1H-pyrazolo[4,3-c][1,8]naphthyr-idine-8-carboxamide] as the compound, how does the IC50 [1] read?
Answer: 19 nM

Question: And the IC50 [2]?
Answer: 234 nM

Question: With `CN(C(=O)c1cc2c(cc1C(F)(F)F)nc(N)c1cnn(C)c12)[C@@H]1COc2cc(C(F)(F)F)ccc21` [Example 253, 4-amino-N,1-dimethyl-7-(trifluoromethyl)-N-((3S)-6-(trifluoromethyl)-2,3-dihydro-1-benzofuran-3-yl)-1H-pyrazolo[4,3-c]quinoline-8-carboxamide] as the compound, how does the IC50 [1] read?
Answer: 35 nM

Question: And the IC50 [2]?
Answer: 2100 nM

Question: Which IC50 [1] does the source give for `CN(C(=O)c1cc(F)c2nc(N)c3cnn(C)c3c2c1)[C@@H]1COc2cc(C(F)(F)F)ccc21` [Example 254, 4-amino-6-fluoro-N,1-dimethyl-N-((3S)-6-(trifluoromethyl)-2,3-dihydro-1-benzofuran-3-yl)-1H-pyrazolo[4,3-c]quinoline-8-carboxamide] here?
Answer: 308 nM

Question: What about the IC50 [2] of the same compound?
Answer: 20200 nM

Question: Which IC50 [1] does the source give for `CN(C(=O)c1ccc2nc(N)c3c(cnn3C)c2c1)[C@@H]1COc2cc(S(F)(F)(F)(F)F)ccc21` [Example 255, 4-amino-N,3-dimethyl-N-((3S)-6-(pentafluoro-lambda~6~- sulfanyl)-2,3-dihydro-1-benzo-furan-3-yl)-3H-pyrazolo[3,4-c]quinoline-8-carboxamide] here?
Answer: 47 nM

Question: And the IC50 [2]?
Answer: 2400 nM

Question: For `CN(C(=O)c1cc2c(cn1)nc(N)c1c2cnn1C)[C@@H]1COc2cc(C(F)(F)F)ccc21` [Example 256, 4-amino-N,3-dimethyl-N-((3S)-6-(trifluoromethyl)-2,3-dihydro-1-benzofuran-3-yl)-3H-pyrazolo[3,4-c][1,7]naphthyr-idine-8-carboxamide], which IC50 [1] is on record?
Answer: 143 nM

Question: And the IC50 [2]?
Answer: 7500 nM

Question: `CN(C(=O)c1cc2c(cn1)nc(N)c1c2cnn1C)[C@@H]1COc2cc(S(F)(F)(F)(F)F)ccc21` [Example 257, 4-amino-N,3-dimethyl-N-((3S)-6-(pentafluoro-lambda~6~-sulfanyl)-2,3-dihydro-1-benzofuran-3-yl)-3H-pyrazolo[3,4-c][1,7]naph-thyridine-8-carboxamide] was tested. Which IC50 [1] did it give?
Answer: 59 nM

Question: And the IC50 [2]?
Answer: 2020 nM

Question: With `CN(C(=O)c1cc2c(cc1F)nc(N)c1c2cnn1C)[C@@H]1COc2cc(C(F)(F)F)ccc21` [Example 258, 4-amino-7-fluoro-N,3-dimethyl-N-((3S)-6-(trifluoromethyl)-2,3-dihydro-1-benzofuran-3-yl)-3H-pyrazolo[3,4-c]quinoline-8-carboxamide] as the compound, how does the IC50 [1] read?
Answer: 54 nM

Question: And the IC50 [2]?
Answer: 4030 nM
